Test results taken from US20150031641A1, “METHODS AND COMPOSITIONS FOR THE DIAGNOSIS, PROGNOSIS AND TREATMENT OF ACUTE MYELOID LEUKEMIA” (MEMORIAL SLOAN-KETTERING CANCER CENTER, priority 2012, published 2015).

Test system: patients with AML
Assay: ECOG E1900 trial: overall survival after induction with high-dose vs standard-dose daunorubicin plus cytarabine, by genotype
Format: in vivo, human
Conditions: for outcome with dose-intensified induction therapy: univariate analysis
Method: The present disclosure is based on mutational analysis of 18 genes in 398 patients with AML younger than 60 years of age randomized to receive induction therapy including high-dose or standard dose daunorubicin. Prognostic findings were further validated in an independent set of 104 patients.
Mutational analysis was performed on diagnostic patient samples from the ECOG E1900 trial in the test (n=398) and validation (n=104) cohorts. The test cohort comprised of all E1900 patients for whom viably frozen cells were available for DNA extraction and mutational profiling. The validation cohort comprised of a second set of patients for whom samples were banked in Trizol, which was used to extract DNA for mutational studies.
Clinical characteristics of the patients studied compared to the complete E1900 trial cohort are in Table 1. The median follow-up time of patients included for analysis was 47.4 months from induction randomization. Cytogenetic analysis, fluorescent in situ hybridization, and RT-PCR for recurrent cytogenetic lesions was performed as described initially by Slovak et al. and utilized previously with central review by the ECOG Cytogenetics Committee (see ref. 16 and 17).
Survival time was measured from date of randomization to date of death for those who died and date of last follow-up for those who were alive at the time of analysis. Survival probabilities were estimated using the Kaplan-Meier method and compared across mutant and wild-type patients using the log-rank test. Multivariate analyses were conducted using the Cox model with forward selection. Proportional hazards assumption was checked by testing for a non-zero slope in a regression of the scaled Schoenfeld residuals on functions of time (Table 3).
When necessary, such as the analyses performed in various subsets, results of the univariate analyses were used to select the variables to be included in the forward variable search. Final multivariate models informed the development of novel risk classification rules. When indicated, p-values were adjusted to control the family wise error rate (FWER) using the complete null distribution approximated by resampling obtained through PROC MULTTEST in SAS or the multtest library in R^19. These adjustements were performed to adjust for the probability of making one or more false discoveries given that multiple pairwise tests were being performed. The only exception is adjustment for tests regarding effect of mutations on response to induction dose where a step-down Holm procedure was used to correct for multiple testing. All analyses were performed using SAS 9.2 (www.sas.com) and R 2.12 (www.r-project.org).
Mutual exclusivitity of pairs of mutations were evaluated by fourfold contingency tables and Fisher's exact test. The association between mutations and cytogenetic risk classification was tested using the chi-square test. Hierarchical clustering was performed using the Lance-Williams dissimilarity formula and complete linkage. Survival time was measured from date of randomization to date of death for those who died and date of last follow-up for those who were alive at the time of analysis. Survival probabilities were estimated using the Kaplan-Meier method and compared across mutant and wildtype patients using the log-rank test. Multivariate analyses were conducted using the Cox model. Proportional hazards assumption was checked by testing for a non-zero slope in a regression of the scaled Schoenfeld residuals on functions of time. […]

COc1cccc2c1C(=O)c1c(O)c3c(c(O)c1C2=O)C[C@@](O)(C(C)=O)C[C@@H]3O[C@H]1C[C@H](N)[C@H](O)[C@H](C)O1 [daunorubicin]
outcome with dose-intensified induction therapy (AML patients with MLL translocations): improved outcome
outcome with dose-intensified induction therapy (AML patients with NPM1 mutations): improved outcome
survival with high-dose daunorubicin according to treatment arm (DNMT3A mutant patients): associated with improved survival
impact of DNMT3A mutational status on the outcome with dose-intensive chemotherapy (patients receiving high-dose or standard-dose daunorubicin, FIG. 4B): significant impact
overall survival, high-dose relative to standard dose daunorubicin (patients with DNMT3A or NPM1 mutations or MLL translocations, cytarabine plus 90 vs 45 mg/m^2 daunorubicin induction): improved survival
